Our source for the TGI values is PubChem BioAssay (NCI).

Each structure is given as a SMILES string.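 Protocol summary: plate cells (96-well), add compound at 5 concentrations, incubate 48 h, interpolate endpoints linearly. At the TGI there is no net growth.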

Some test systems named below: KM20L2 colon; DLD-1 colon; A498 renal; DMS 273 small cell lung; SN12C renal; NCI-H460 lung; HOP-62 NSCLC; HCT-116 colon; XF 498 CNS; HCT-15 colon; LXFL 529 NSCLC; DMS 114 small cell lung; M19-MEL melanoma; SK-OV-3 ovarian; SK-MEL-28 melanoma; OVCAR-5 ovarian; SNB-78 CNS.
Common to all, as to test: NCI tumour cell line growth inhibition, 48 h

For `O=C1c2ccccc2C(=O)N1C/C=N/NS(=O)(=O)c1ccc(Cl)cc1`, the TGI with KM20L2 colon, with DLD-1 colon, in the assay with A498 renal, with DMS 273 small cell lung, in the assay on SN12C renal and in the assay with NCI-H460 lung was above 100 µM in each case. Also, the TGI in the assay on HOP-62 NSCLC, with HCT-116 colon, in the assay on XF 498 CNS, with HCT-15 colon, with LXFL 529 NSCLC and in the assay with DMS 114 small cell lung was above 100 µM each time. The molecule further showed a TGI in the assay with M19-MEL melanoma above 100 µM.

With `Cc1cc(Cl)ccc1N1C(=O)C(=O)C(c2nc3ccccc3s2)/C(=N\NC(=O)c2ccccc2O)C1=O` (centres undefined), the TGI in the assay on KM20L2 colon, with SK-OV-3 ovarian, with SK-MEL-28 melanoma, in the assay with OVCAR-5 ovarian, in the assay with DLD-1 colon and in the assay with A498 renal was above 100 µM throughout. The TGI in the assay on DMS 273 small cell lung, in the assay with SN12C renal, with NCI-H460 lung, with HOP-62 NSCLC, in the assay with HCT-116 colon and in the assay with HCT-15 colon was above 100 µM each time. In addition, the TGI with SNB-78 CNS, in the assay with LXFL 529 NSCLC, with DMS 114 small cell lung and in the assay on M19-MEL melanoma was above 100 µM each time.

Consider `CN(C)CC1CCC(CN(C)C)C1=NO` (centres undefined), for which the TGI in the assay on KM20L2 colon, in the assay with SK-MEL-28 melanoma, with OVCAR-5 ovarian, in the assay on DLD-1 colon, with DMS 273 small cell lung and with SN12C renal was above 100 µM each time. The TGI with NCI-H460 lung is above 10 µM; in the assay on HOP-62 NSCLC, above 100 µM; in the assay with HCT-116 colon, above 100 µM; in the assay on HCT-15 colon, above 100 µM; with SNB-78 CNS it was above 100 µM; with LXFL 529 NSCLC, above 100 µM. Moreover, the TGI with DMS 114 small cell lung and with M19-MEL melanoma was above 100 µM each time.

With `CN1C(=O)NC2(O)c3ccccc3C(=O)C12O` (centres undefined), the TGI in the assay with KM20L2 colon, in the assay on SK-OV-3 ovarian, in the assay with SK-MEL-28 melanoma, in the assay on OVCAR-5 ovarian, with DLD-1 colon and in the assay with NCI-H460 lung was above 100 µM each time. In addition, the TGI with HCT-116 colon, with XF 498 CNS, with HCT-15 colon, in the assay on SNB-78 CNS, with LXFL 529 NSCLC and in the assay on DMS 114 small cell lung was above 100 µM each time. Also, the TGI with M19-MEL melanoma was above 100 µM.

As to `CSc1ccc2c(cc1=O)C(NC(=O)c1cc(O)c(OC(=O)O)c(O)c1)CCc1cc(O)c(O)c(O)c1-2` (centres undefined), the TGI in the assay with KM20L2 colon is 83.2 µM; in the assay on SK-OV-3 ovarian it was above 90 µM; in the assay on SK-MEL-28 melanoma, 56.2 µM; with OVCAR-5 ovarian, above 9 µM; in the assay with DLD-1 colon, 43.9 µM; in the assay on A498 renal, above 90 µM. The TGI in the assay with DMS 273 small cell lung is 38.6 µM; in the assay on SN12C renal, 26.7 µM; in the assay with NCI-H460 lung, 49.1 µM; with HOP-62 NSCLC, 64.5 µM; with HCT-116 colon, 29.1 µM; in the assay with HCT-15 colon it was 34.3 µM. Also, the TGI came out at 81.6 µM in the assay with SNB-78 CNS, 36.9 µM in the assay on LXFL 529 NSCLC, 36 µM in the assay with DMS 114 small cell lung and 27.4 µM in the assay with M19-MEL melanoma.

Consider `C#Cc1cccc(N2C(=O)CC(=P(c3ccccc3)(c3ccccc3)c3ccccc3)C2=O)c1`, for which the TGI in the assay with SK-OV-3 ovarian, in the assay on SK-MEL-28 melanoma, in the assay with OVCAR-5 ovarian, in the assay on DLD-1 colon, in the assay on A498 renal and in the assay on SN12C renal was above 100 µM each time. Moreover, the TGI was above 100 µM with NCI-H460 lung; above 100 µM in the assay with HOP-62 NSCLC; above 100 µM in the assay on HCT-116 colon; 38.8 µM in the assay on XF 498 CNS; above 100 µM in the assay with SNB-78 CNS; above 100 µM in the assay on LXFL 529 NSCLC. For the same molecule, the TGI in the assay with DMS 114 small cell lung was 72.6 µM; in the assay on M19-MEL melanoma, above 100 µM.

With `COC(=O)C(=O)C(C(=O)C(=O)Nc1ccc([N+](=O)[O-])cc1C#N)c1nc2ccc([N+](=O)[O-])cc2[nH]c1=O` (centres undefined), the TGI in the assay on KM20L2 colon, in the assay on SK-OV-3 ovarian, in the assay with OVCAR-5 ovarian, in the assay on DLD-1 colon, with A498 renal and in the assay with DMS 273 small cell lung was above 100 µM throughout. Further, the TGI in the assay on SN12C renal, in the assay on NCI-H460 lung, in the assay with HOP-62 NSCLC, in the assay on HCT-116 colon, in the assay on HCT-15 colon and with SNB-78 CNS was above 100 µM in each case. Also, the TGI in the assay on LXFL 529 NSCLC, with DMS 114 small cell lung and in the assay with M19-MEL melanoma was above 100 µM each time.

Take `O=C1c2ccccc2N2OC3C4CCC(C4)C3C12c1ccccc1` (centres undefined): the TGI in the assay on KM20L2 colon, in the assay with SK-OV-3 ovarian, in the assay with SK-MEL-28 melanoma, in the assay on DLD-1 colon, in the assay on A498 renal and with DMS 273 small cell lung was above 100 µM each time. For the same molecule, the TGI in the assay with SN12C renal, with HOP-62 NSCLC, in the assay on HCT-116 colon, with HCT-15 colon, with LXFL 529 NSCLC and in the assay with DMS 114 small cell lung was above 100 µM in each case. Besides, in the assay with M19-MEL melanoma, the TGI was above 100 µM.
